Tests used:
Assay type in all cases: in vivo
Set-up in all cases: scale not given here
[1] = test system: Echinochloa oryzicola Vasing; test: Herbicidal effect by paddy field soil treatment; details: wettable powder, active ingredient 1000 g/ha, examined at the 21st day from the treatment
Procedure: (§1) A paddy field soil was filled in a plastic pot of 100 cm^2 and subjected to puddling. Then, seeds of Echinochloa oryzicola Vasing and Monochoria vaginalis (Murm. f.) Presl var. plantaginea (Roxb.) Solms-Laub. were sowed and water was filled in a depth of 3 cm. Next day, wettable powders produced in accordance with the Formulation 1 were diluted with water and dropped on the water surface. The application amount of each wettable powder was 1,000 g per 1 hectare in terms of the active ingredient. Then, breeding was made in a greenhouse, and the herbicidal effect of each wettable powder was examined at the 21st day from the treatment in accordance with the standard shown in Table 21.

[2] = test system: Monochoria vaginalis (Murm. f.) Presl var. plantaginea (Roxb.) Solms-Laub.; test: Herbicidal effect by paddy field soil treatment; details: wettable powder, active ingredient 1000 g/ha, examined at the 21st day from the treatment
Procedure: as §1

[3] = test system: Echinochloa crus-galli (L.) Beauv. var. crusgalli; test: Herbicidal effect by upland field soil treatment; details: active ingredient 1000 g/ha, examined at 21st day from treatment
Excerpt: (§2) An upland field soil was filled in a plastic pot of 80 cm^2. Seeds of Echinochloa crus-galli (L.) Beauv. var. crusgalli and Setaria viridis (L.) Beauv. were sowed, followed by covering with the same soil. […] Then, breeding was made in a greenhouse, and the herbicidal effect of each wettable powder was examined at the 21st day from the treatment in accordance with the standard shown in Table 21.

[4] = test system: Setaria viridis (L.) Beauv.; test: Herbicidal effect by upland field soil treatment; details: active ingredient 1000 g/ha, examined at 21st day from treatment
Excerpt: as §2

CC(C)C(SC1=NOC(C)(C)C1)c1cncnc1C(F)(F)F (racemic) [8-0012] was tested, and the “Herbicidal effect index, Echinochloa oryzicola Vasing” value [1] was 5 and the “Herbicidal effect index, Monochoria vaginalis (Burm. F.) Presl var. plantaginea (Roxb.) Solms-Laub.” value (“Herbicidal effect index … (Roxb.) Solms-Laub.” for short) [2] was 5.
In the case of Cc1ccc(CS(=O)(=O)C2=NOC(C)(C)C2)s1 [1-0003], the “Herbicidal effect index, Echinochloa oryzicola Vasing” value [1] is reported as 5, the “Herbicidal effect index … (Roxb.) Solms-Laub.” value [2] is reported as 5 and the “herbicidal effect (index per standard of Table 21), Echinochloa curs-galli (L.) Beauv. Var. crus-galli” value [3] is reported as 5. For the same molecule, the “herbicidal effect (index per standard of Table 21), Setaria viridis (L.) Beauv.” value [4] was 5.
For CC1(C)CC(S(=O)(=O)Cc2ccc(Cl)s2)=NO1 [1-0005], the “Herbicidal effect index, Echinochloa oryzicola Vasing” value [1] was 5, the “Herbicidal effect index … (Roxb.) Solms-Laub.” value [2] was 5 and the “herbicidal effect (index per standard of Table 21), Echinochloa curs-galli (L.) Beauv. Var. crus-galli” value [3] was 5. For the same molecule, the “herbicidal effect (index per standard of Table 21), Setaria viridis (L.) Beauv.” value [4] was 5.
In the case of CC1(C)CC(S(=O)(=O)Cc2ccco2)=NO1 [1-0006], the “herbicidal effect (index per standard of Table 21), Echinochloa curs-galli (L.) Beauv. Var. crus-galli” value [3] is reported as 5 and the “herbicidal effect (index per standard of Table 21), Setaria viridis (L.) Beauv.” value [4] is reported as 4.
For CC1(C)CC(S(=O)(=O)Cc2cc(Cl)sc2Cl)=NO1 [2-0005], the “Herbicidal effect index, Echinochloa oryzicola Vasing” value [1] was 5, the “Herbicidal effect index … (Roxb.) Solms-Laub.” value [2] was 5 and the “herbicidal effect (index per standard of Table 21), Echinochloa curs-galli (L.) Beauv. Var. crus-galli” value [3] was 5. The “herbicidal effect (index per standard of Table 21), Setaria viridis (L.) Beauv.” value [4] was 5.
With Cc1sc(C)c(CS(=O)(=O)C2=NOC(C)(C)C2)c1C [2-0007] the “herbicidal effect (index per standard of Table 21), Echinochloa curs-galli (L.) Beauv. Var. crus-galli” value [3] was 4 and the “herbicidal effect (index per standard of Table 21), Setaria viridis (L.) Beauv.” value [4] was 4.
For Cn1nc(C(F)F)c(CSC2=NOC(C)(C)C2)c1Cl [3-0020, 3-(5-chloro-3-difluoromethyl-1-methyl-1H-pyrazol-4-ylmethylthio)-5,5-dimethyl-2-isoxazoline], the “herbicidal effect (index per standard of Table 21), Echinochloa curs-galli (L.) Beauv. Var. crus-galli” value [3] was 5 and the “herbicidal effect (index per standard of Table 21), Setaria viridis (L.) Beauv.” value [4] was 5.
In the case of COc1nn(C)c(C(F)(F)F)c1CS(=O)(=O)C1=NOC(C)(C)C1 [3-0043], the “herbicidal effect (index per standard of Table 21), Echinochloa curs-galli (L.) Beauv. Var. crus-galli” value [3] is reported as 5 and the “herbicidal effect (index per standard of Table 21), Setaria viridis (L.) Beauv.” value [4] is reported as 5.
With CCCCOc1c(CS(=O)(=O)C2=NOC(C)(C)C2)c(C(F)(F)F)nn1C [3-0048] the “herbicidal effect (index per standard of Table 21), Echinochloa curs-galli (L.) Beauv. Var. crus-galli” value [3] was 5 and the “herbicidal effect (index per standard of Table 21), Setaria viridis (L.) Beauv.” value [4] was 5.
Cn1nc(C(F)(F)F)c(CS(=O)(=O)C2=NOC(C)(C)C2)c1OCC1CC1 [3-0050] was tested, and the “herbicidal effect (index per standard of Table 21), Echinochloa curs-galli (L.) Beauv. Var. crus-galli” value [3] was 5 and the “herbicidal effect (index per standard of Table 21), Setaria viridis (L.) Beauv.” value [4] was 5.
In the case of Cn1nc(C(F)(F)F)c(CS(=O)(=O)C2=NOC(C)(C)C2)c1OCC1CCCC1 [3-0051], the “Herbicidal effect index, Echinochloa oryzicola Vasing” value [1] is reported as 5 and the “Herbicidal effect index … (Roxb.) Solms-Laub.” value [2] is reported as 5.
With C#CCOc1c(CS(=O)(=O)C2=NOC(C)(C)C2)c(C(F)(F)F)nn1C [3-0053] the “herbicidal effect (index per standard of Table 21), Echinochloa curs-galli (L.) Beauv. Var. crus-galli” value [3] was 5 and the “herbicidal effect (index per standard of Table 21), Setaria viridis (L.) Beauv.” value [4] was 5.
Cn1nc(C(F)(F)F)c(CS(=O)(=O)C2=NOC(C)(C)C2)c1OCC(F)F [3-0056] was tested, and the “herbicidal effect (index per standard of Table 21), Echinochloa curs-galli (L.) Beauv. Var. crus-galli” value [3] was 5 and the “herbicidal effect (index per standard of Table 21), Setaria viridis (L.) Beauv.” value [4] was 5.
For Cn1nc(C(F)(F)F)c(CS(=O)(=O)C2=NOC(C)(C)C2)c1Oc1cccc(Cl)c1 [3-0061], the “Herbicidal effect index, Echinochloa oryzicola Vasing” value [1] was 5 and the “Herbicidal effect index … (Roxb.) Solms-Laub.” value [2] was 5.
With Cn1nc(C(F)(F)F)c(CS(=O)(=O)C2=NOC(C)(C)C2)c1Oc1ccc(Cl)cc1 [3-0063] the “herbicidal effect (index per standard of Table 21), Echinochloa curs-galli (L.) Beauv. Var. crus-galli” value [3] was 5 and the “herbicidal effect (index per standard of Table 21), Setaria viridis (L.) Beauv.” value [4] was 5.
CC1(C)CC(S(=O)(=O)Cc2c(C(F)(F)F)nn(C3CCCC3)c2Cl)=NO1 [3-0089] was tested, and the “Herbicidal effect index, Echinochloa oryzicola Vasing” value [1] was 5 and the “Herbicidal effect index … (Roxb.) Solms-Laub.” value [2] was 5.
For CC1(C)CC(S(=O)(=O)Cc2c(Cl)nn(C3CCCC3)c2C(F)(F)F)=NO1 [3-0090], the “Herbicidal effect index, Echinochloa oryzicola Vasing” value [1] was 5 and the “Herbicidal effect index … (Roxb.) Solms-Laub.” value [2] was 5.
In the case of CC1(C)CC(S(=O)(=O)Cc2c(C(F)(F)F)nn(CC3CCCC3)c2Cl)=NO1 [3-0100], the “Herbicidal effect index, Echinochloa oryzicola Vasing” value [1] is reported as 5 and the “Herbicidal effect index … (Roxb.) Solms-Laub.” value [2] is reported as 5.
In the case of CC1(C)CC(S(=O)(=O)Cc2c(Cl)nn(CC3CCCC3)c2C(F)(F)F)=NO1 [3-0101], the “Herbicidal effect index, Echinochloa oryzicola Vasing” value [1] is reported as 5 and the “Herbicidal effect index … (Roxb.) Solms-Laub.” value [2] is reported as 5.
For CC1(C)CC(S(=O)(=O)Cc2c(C(F)(F)F)nn(CC3CCCCC3)c2Cl)=NO1 [3-0102], the “Herbicidal effect index, Echinochloa oryzicola Vasing” value [1] was 5 and the “Herbicidal effect index … (Roxb.) Solms-Laub.” value [2] was 5.
CC1(C)CC(S(=O)(=O)Cc2c(Cl)nn(CC3CCCCC3)c2C(F)(F)F)=NO1 [3-0103] was tested, and the “Herbicidal effect index, Echinochloa oryzicola Vasing” value [1] was 5 and the “Herbicidal effect index … (Roxb.) Solms-Laub.” value [2] was 5.
